Reference: ChEMBL document CHEMBL3507680, “University of Dundee, Gates Library screen for HepG2 cell viability”

Assay: Human HepG2 cell viability assay in 384 well format
Type: toxicity, cell-based
Set-up: dose 125 nL, time 70.5 hour; concentration not given beside the values
Conditions: HepG2 cells, read-out: Inhibition

Structure (SMILES)	cytotoxicity at 70.5 h [%]
O=C(c1ccncc1)N1CCN2C[C@H](Oc3cncnc3)C[C@H]2C1	1.56
c1ccc(NCc2cn3c(n2)CN(Cc2nccs2)CC3)nc1	-0.336
Cc1noc([C@@]23CCO[C@@H]2CCN(C(=O)c2cc(C)on2)C3)n1	-3.23
Cc1noc([C@@]23CCO[C@@H]2CCN(C(=O)c2ccsc2)C3)n1	-1.85
COCCN1C(=O)[C@]2(CC[C@@H]3CN(C(=O)NC(C)C)C[C@@H]32)N=C1C	25.4
CC1=N[C@@]2(CC[C@@H]3CN(C(=O)NCC(C)C)C[C@@H]32)C(=O)N1CC(C)C	12.3
O=C1NC(c2ccccc2)=N[C@@]12CC[C@@H]1CN(Cc3ccoc3)C[C@@H]12	-3.26
CCS(=O)(=O)N1CCC2(CC(=O)N(c3cnn(C)c3)C2)C1 (stereo not drawn)	-2.5
COCC1CN(Cc2cc(C)on2)Cc2cn(CC3CC3)nc21 (stereo not drawn)	-1.87
O=C(c1ccsc1)N1CCc2c(CN3CCCC3)n[nH]c2C1	0.233
O=C1NC(c2ccccc2)=N[C@@]12CC[C@@H]1CN(CC3CCOCC3)C[C@@H]12	23.3
c1ccc(C[C@H]2[C@H](N3CCOCC3)CCN2Cc2cccnc2)cc1	2.51
CO[C@H]1CO[C@@]2(CCCN(C(=O)C3=CCCCC3)C2)C1	-2.72
CN(C)C(=O)N1CCc2c(nnn2C)C1COCc1ccccc1 (stereo not drawn)	-2.85
O=C([C@H]1C[C@H]2OCC[C@H]2N(C(=O)c2ccncc2)C1)N1CCCCO1	3.71
Cn1cccc1C(=O)NCc1cnc2n1CCN(C(=O)N1CCCC1)C2	-4.52
O=C(c1ccsc1)N1CCc2c(CNc3ncccn3)n[nH]c2C1	3.39
CN(C)C(=O)c1nc2c(s1)CCN(C(=O)c1ccc(Cl)cc1)CC2	-2.44
O=C(c1cscn1)N1C[C@@H]2[C@@H](C1)OCC(=O)N2CC1CCCC1	-6.35
COCCC(=O)N1CCN(CCN(C)C)c2ncccc2C1	-6.14
Cc1csc([C@@H]2C[C@@H]3CCN(Cc4cnn(C)c4)C[C@H]3O2)n1	-8.46
CN(C)C(=O)COCc1cncc2c1CCN(Cc1nccn1C)C2	-7.66
c1ccc(O[C@H]2CC[C@H]3[C@H]2OCCN3Cc2nccs2)nc1	-9.23
O=C(CCO)N1CCOC2(CCCN(C(=O)c3ccco3)C2)C1 (stereo not drawn)	-7.04
COCC(=O)N1CC[C@@H]2CN(Cc3cccc(Cl)c3)S(=O)(=O)[C@@H]2CC1	24.3
COCCN1CCC2(CCN(Cc3nccs3)CC2)C1=O	-8.69

Structure (SMILES)	cytotoxicity at 70.5 h [%]
Cc1noc(C)c1CN1CC2(CCN(C(=O)c3c[nH]cn3)C2)CC1=O (stereo not drawn)	-11.1
CCN(C)c1ncnc2c1CCN(C(=O)c1ccno1)CC2	-7.5
Cc1occc1C(=O)N1CCC2(CC1)CC(c1cccnc1)C(=O)N2C (stereo not drawn)	-17.4
O=C(c1ccncn1)N1CCO[C@H]2[C@@H](OCc3cccnc3)CC[C@@H]21	-9.05
CCOCC1CN(C(=O)N(C)C)Cc2nn(C)cc21 (stereo not drawn)	-5.53
Cc1cc(C(=O)N2CC[C@H](OCC3CC3)[C@@H]2Cc2cccnc2)no1	-4.43
CN(Cc1ccco1)C[C@H]1OC[C@@H]2CCN(Cc3nccs3)C[C@@H]21	-10.1
Cc1oncc1C(=O)N1CCC2(CC1)CC(c1ccccc1)C(=O)N2C (stereo not drawn)	-19
Cc1cnc(N2CCC3(CCCN(c4ccc(C)nn4)C3)C2)nc1 (stereo not drawn)	14.4
COCC(=O)N1CCC(c2nc3ccc(-c4ccccc4)cn3n2)CC1	-7.3
Cc1ccnn1CCC(=O)N1CCCC2(C1)NC(=O)c1ccccc1O2 (stereo not drawn)	-2.25
Cc1c(CN2CCCC(n3c(=O)oc4ccccc43)C2)cnn1C (stereo not drawn)	17.2
Cn1cc(CN2CCCC(n3c(=O)oc4ccccc43)C2)cn1 (stereo not drawn)	-0.583
COc1nc2cc(C)ccc2cc1CN(C)Cc1n[nH]c2c1CCCC2	2.69
COCC(=O)N1CCC(c2cc3nc(C)cc(C(F)(F)F)n3n2)CC1	25.3
CCN(CC)S(=O)(=O)c1cc2c3c(c1)c(C)cc(=O)n3CCC2	36
CC(C)N1CCCCC1c1cncc(Cl)n1 (stereo not drawn)	17.6
CNc1cc(C)nc(C2COCCN2CCc2ccc(F)cc2)n1 (stereo not drawn)	-4.38
CN1C(=O)CO[C@H]2CCN(C(=O)Cc3ccc4c(c3)CCCC4)CC[C@@H]21	-4.91
CC(C)N1C(=O)CO[C@H]2CCN(C(=O)c3ccc4c(c3)CCC4)CC[C@@H]21	-3.57
O=C(CCc1ccccc1F)NC1CCCN(c2ccccn2)C1 (stereo not drawn)	-5.74
Cc1oc2c(c1C(=O)N1C[C@H](O)[C@]3(CCCO3)C1)CCCC2	-3.22
CC(C)N1CCC(Cn2cc(C(N)=O)cn2)CC1	11.9
CCOc1ccc(CN2CCC(c3ccn[nH]3)C2)cc1CO (stereo not drawn)	3.78
CN(CC1CCOCC1)C1CCCN(c2ccccn2)C1 (stereo not drawn)	-7.08
Cn1cc([C@@H]2CN(S(=O)(=O)c3cccnc3)C[C@H]2N)c2ccncc21	24

Structure (SMILES)	cytotoxicity at 70.5 h [%]
COc1ccccc1C(=O)N1CCNCC1C(N)=O (stereo not drawn)	-2.25
Cc1noc(C)c1CN1CC[C@H]2O[C@@H](C(=O)N3CCCC3)CC[C@H]21	6.38
Cc1noc(C)c1CN1CC[C@@H]2O[C@@H](COCC3CC3)CC[C@@H]21	-4.44
O=S(=O)(C1CC1)N1CCn2cc(CNc3ccccn3)nc2C1	-0.935
COCc1cnc2n1CCN(C1CCCC1)C2C (stereo not drawn)	5.67
Cc1nc(CN2CCCn3cnc(COCC4CC4)c3C2)cs1	-1.49
CCCS(=O)(=O)N1CCn2cc(CNc3ccccn3)nc2C1	-2.49
CO[C@@H]1CCN(c2nnc(C)s2)C[C@@H]1Cc1cccc(C)c1	-0.0343
O=C(c1cccs1)N1CCC[C@]2(C[C@@H](OCc3ccncc3)CO2)C1	-4.03
Cc1nc(CN2CCc3ncnc(C4CCOC4)c3CC2)cs1 (stereo not drawn)	0.032
Cn1cc(N2CC3(CCN(CC4CC4)C3)CC2=O)cn1 (stereo not drawn)	-2.96
Cc1ccc(CN2C[C@H](C(=O)N3CCCCO3)[C@@H]3CCO[C@@H]3C2)o1	-5.78
Cc1noc([C@@]23CCO[C@@H]2CCN(CC2CCOCC2)C3)n1	-5.71
Cn1cccc1C(=O)N[C@@H]1CN(CC2CC2)[C@@H]2COC[C@@H]21	-5.94
COCCN1C[C@@H]2CCCO[C@@H]2[C@H](NC(=O)c2cnccn2)C1	-0.647
O=C(C1=CCCC1)N1CCC[C@]2(C[C@@H](OCc3ccncc3)CO2)C1	0.64
Cc1nc(CN2CCn3cc(CNC(=O)C4CCC4)nc3C2)cs1	14
CO[C@H]1CN(Cc2cccc(C#N)c2)[C@@H]2COC[C@H]12	-0.497
O=C(O)[C@]12CCCN(Cc3ccccc3)C[C@H]1CN(c1ncccn1)C2	-5.39
Cc1nnc(N2CC[C@H](OCC3CC3)[C@@H](Cc3ccccc3)C2)s1	11.8
O=C([C@H]1CN(CCc2ccccc2)C[C@H]2OCC[C@@H]12)N1CCCO1	6.27
COc1ccc(CN2CCc3ncnc(C4CCOC4)c3CC2)cc1 (stereo not drawn)	13.2
O=C1[C@H]2CN(Cc3cccs3)C[C@H]2CN1c1cncnc1	-6.91
COCC1CN(Cc2ccc(C)o2)Cc2nnn(CC3CC3)c21 (stereo not drawn)	-5.7
Cc1occc1C(=O)N1CCOCC2(CCN(Cc3nccs3)C2)C1 (stereo not drawn)	-6.13
CN(C)C(=O)CO[C@H]1CN(Cc2ccc(F)cc2)[C@@H]2CCCO[C@H]12	-9.38

Structure (SMILES)	cytotoxicity at 70.5 h [%]
Cc1occc1C(=O)N1CCCC2(CCN(CCN3CCCC3)C2=O)C1 (stereo not drawn)	-11.9
Cc1ccc(CN2CCOC3(CCCN(C(=O)c4ccco4)C3)C2)s1 (stereo not drawn)	-10.7
CN(C)C(=O)CN1CCC2(CCN(Cc3nccs3)CC2)C1=O	16.1
CCn1cc2c(n1)CN(C(=O)c1ccncc1)CC2COCC1CC1 (stereo not drawn)	-25.7
Cc1ccc(CN2CC(C(=O)Nc3ccccc3)C3(CCOCC3)C2)s1 (stereo not drawn)	-13.1
Cn1cc(C(=O)N[C@@H]2CN(Cc3cccs3)[C@@H]3CCCO[C@@H]32)cn1	-14.7
Cc1nc(CN2C(=O)COC3(CCN(Cc4ccco4)CC3)C2C)cs1 (stereo not drawn)	-1.55
CC(C)N(C)Cc1cn2c(n1)CN(C(=O)Cc1ccsc1)CC2	0.0105
COc1ccc(CN2C[C@@H](OCc3csc(C)n3)[C@H]3COC[C@H]32)cc1	-3.55
Cc1nc(CO[C@@H]2CN(Cc3cnn(C)c3)[C@@H]3COC[C@@H]32)cs1	5.43
CC1c2ncc(COCc3ccccn3)n2CCN1C1CCCC1 (stereo not drawn)	-2.61
CN1CC(=O)N(c2ccccc2)CC12CCN(Cc1nccs1)C2 (stereo not drawn)	3.9
CC(C)NC(=O)[C@H]1C[C@@H]2[C@@H](C1)OCCN2Cc1cccnc1	-2.77
COCC1CN(Cc2ccc(C)o2)Cc2cn(C)nc21 (stereo not drawn)	3.14
CN(C)CCO[C@H]1CN(Cc2cccc(C#N)c2)[C@@H]2COC[C@H]12	-1.49
O=C(CC1CC1)N[C@@H]1CN(Cc2ccncc2)C[C@@H]2CCCO[C@@H]21	-0.814
COCCN1CCOCC2(CCCN(Cc3ccc(C)o3)C2)C1 (stereo not drawn)	7.21
c1cncc(COCc2nnc3n2CCN(Cc2ccsc2)C3)c1	-2.47
O=C1[C@H]2CN(Cc3ccoc3)C[C@H]2CN1Cc1ccncc1	-1.61
c1csc(CN2CCO[C@H]3[C@H](OCCN4CCCC4)CC[C@@H]32)n1	-11.1
COCC1CC2(CCN(Cc3cnn(C)c3)CC2)CN1c1ncccn1 (stereo not drawn)	-10.8
Cn1cnc2c1C(COCc1ccccc1)N(Cc1cccnc1)CC2 (stereo not drawn)	-0.0183
Cn1cnc2c1C(COCc1cccnc1)N(Cc1nccs1)CC2 (stereo not drawn)	-1.3
Cc1ccc(CN2CC[C@@H](N3CCOCC3)[C@@H]2Cc2cccnc2)o1	-6.64
Cc1cc(C(F)(F)F)n2nc(C3CCCN3C3CCSCC3)cc2n1 (stereo not drawn)	-2.47
